The values that follow come from patent publication US11324217B2, “Preparation method and application of polyketides bearing the trans-fused decalin skeleton” (QINGDAO AGRICULTURAL UNIVERSITY, priority 2019, dated 2022).

In data set [1] the test system is Echinochloa crusgalli seedlings. As to the kind of experiment: Herbicidal activity test (PPA method), growth inhibition of radicles of weed seedlings. It counts as in vivo. To be noted: Echinochloa crus-galli, 48 h, radicle length after 2 days in agar, read-out: Growth inhibition rates (%) to radicles of Echinochloa crusgalli seedlings; for inhibition at 2.5 µg/mL: 2.5 μg/mL; for inhibition at 5 µg/mL: 5 μg/mL; for inhibition at 10 µg/mL: 10 μg/mL. From the text:
The method of grinded plant tissue powder mixed with agar (PPA method), established by Luo Xiaoyong, et al. (Journal of Qingdao Agricultural University, 2007, 24: 267-270) is used to quickly determine the herbicidal activity of compounds. It has the advantages of high sensitivity, easy operation, good repeatability, and large-throughput screening. It is also easy to observe the growth status of indicator plants. Luo Xiaoyong used this method to quickly determine the herbicidal activity of the leaves of 40 garden plants. Zhang Lijuan (Plant Protection, 2016, 42: 63-66) and Su Fansheng (Applied Chemistry, 2014, 31: 290-295) quickly determined the herbicidal activity of corn stalks and imidazole compounds by the PPA method with Echinochloa crusgalli as the test weed. Zhang Yun (Journal of Microbiology, 2015, 55: 292-298) and Li Shuai (Journal of Agricultural and Food Chemistry, 2014, 62: 8997-9001) studied the inhibitory effect of microbial secondary metabolites on the root growth of Amaranthus retroflexus by using Amaranthus retroflexus as the test weed.
Weed seeds were first sterilized with 0.2% sodium hypochlorite for 15 min, then washed repeatedly with sterile distilled water, soaked for 4-6 h, and germinated for 12 h in a medical tray with sterile wet filter paper in a dark place.
The compound to be tested was dissolved in dimethyl sulfoxide (DMSO) to obtain a 4 mg/mL solution, and the 4 mg/mL solution was then diluted with 50% DMSO aqueous solution to different concentrations for later use.
1 mL of the sample solution and 99 mL of sterile agar aqueous solution were mixed well, and poured into three 25 mL small beakers to be condensed. Needle-nose tweezers were used to insert 5 small holes on the surface of the condensed agar, the germinated test weed seedlings with 4-5 radicles were clamped separately and inserted gently and vertically into the small holes. Each beaker had five pieces of such agar and the operation was repeated for three times. Then, all beakers were sealed with tin foil and placed in a sterilized small carton, and the sterilized small carton was then placed in an artificial climate box for shading culture for 2 days. The artificial climate box set an automatic cycle of 14 h lighting (25° C.) and 10 h shading (20° C.), and the relative humidity in the box was set at 60%. After 2 days, the lengths of the radicle and hypocotyl were investigated to calculate the weed growth inhibition rate.
The calculation equations were as follows (Chinese Agricultural Science Bulletin, 2013, 29: 177-182): Growth=length of radicle (hypocotyl) after treatment−length of radicle (hypocotyl) before treatment; Inhibition rate (%)=[(average growth of control−average growth of treatment)/average growth of control]×100%.

The test system of the next data set is Brine shrimp. The experiment in a line: Lethal activity of Brine shrimp. It counts as in vivo. The conditions noted are these: concentration of 500 μg/mL; 24 h incubation at room temperature. The method, then: Brine shrimp is an aquatic animal that is highly sensitive to toxic substances. It can be used as a model organism to preliminary evaluate the toxic effects of compounds on the environment. Masi, M. et al. used Brine shrimp to preliminary evaluate the toxicity of the herbicidal active compounds Colletochlorins E and F (Journal of Agricultural and Food Chemistry, 2017, 65: 1124-1130).
100 mg of Brine shrimp eggs were placed in a 500 mL beaker, 400 mL of artificial seawater was added, the Brine shrimp eggs were slowly inflated with an air pump and hatched at room temperature for 24 h, the egg shells and unhatched eggs were removed, and the Brine shrimps were further incubated for 24 h.
The compound to be tested was dissolved in DMSO to obtain a 20 mg/mL mother liquor, and the mother liquor was then sequentially diluted twice to obtain 10, 5 and 2.5 mg/mL solutions for later use.
195 μL of artificial seawater containing 10-15 Brine shrimps were added into each well of a 96-well cell culture plate to make a test culture plate. […] After incubation at room temperature for 24 h, the number of Brine shrimp deaths was counted under a binocular dissecting microscope. […]

For orientation: inhibition means the change of the read-out against control, counted positive when it falls. With `CCOCN(C(=O)CCl)c1c(C)cccc1CC` [Acetochlor, reference compound], in data set [1], the inhibition at 2.5 µg/mL was 54.8 ± 1.3%, the inhibition at 5 µg/mL came out at 65.6 ± 1.8% and the inhibition at 10 µg/mL came out at 76.1 ± 1.4%.
On to `CC1=C[C@H](O)[C@H]2C[C@@H](C)CC[C@@H]2[C@@]1(C)C(=O)CCO` [Compound 1], for which, in data set [1], the inhibition at 2.5 µg/mL turned out to be 52.7 ± 1%, the inhibition at 5 µg/mL was 64.7 ± 0.9% and the inhibition at 10 µg/mL is 81.5%. In addition, in the data set with Brine shrimp, the “lethal activity of Brine shrimp” value is reported as “do not exhibit the lethal activity”.
Take `C[C@H]1CC[C@H]2[C@@H](C=C[C@@](C)(O)[C@]2(C)C(=O)CCOC(=O)Cc2ccc(O)c(O)c2)C1` [Compound 2]: in data set [1], the inhibition at 2.5 µg/mL amounted to 41 ± 0.8%, the inhibition at 5 µg/mL is 55.4 ± 1.2% and the inhibition at 10 µg/mL worked out at 79.6%. Moreover, the “lethal activity of Brine shrimp” value in the data set on Brine shrimp is reported as “do not exhibit the lethal activity”.
